Data from ChEMBL document CHEMBL1136564, “Sordaricin antifungal agents” (2003).
In brackets after ≈: the same amount, converted by molar mass.

Assays:
Assay type in all cases: functional
Nakaseomyces glabratus = assay: Minimum inhibitory concentration required to inhibit 90 to 100% visible growth of Candida glabrata
Candida albicans = assay: Minimum inhibitory concentration to inhibit 90 to 100% visible growth of Candida albicans
[1] = In vitro therapeutic index (calculated as CC50/MIC (Candida albicans)).
HEp-2 = assay: In vitro cytotoxic concentration against Hep2 cells.; conditions: Homo sapiens

Structure (SMILES) | MIC (Nakaseomyces glabratus) [µg/mL] | MIC (Candida albicans) [µg/mL] | Therapeutic index [1] | CC50 (HEp-2) [µg/mL]
CC(C)C1=CC2CC3(C=O)C4CC[C@@H](C)C4CC2(CCOC(=O)CCN2CCCCC2)C13C(=O)O (stereo not given in full) | > 128 | > 128 | – | –
CC(C)C1=CC2CC3(C=O)[C@@H]4CC[C@@H](C)[C@H]4CC2(C(O)C#Cc2ccccc2)[C@]13C(=O)O (stereo not given in full) | 8 (≈ 18.5 µM) | 0.25 (≈ 0.578 µM) | – | –
CC(C)C1=CC2CC3(C=O)C4CC[C@@H](C)C4CC2(CCOC(=O)C2CCN(C(=O)OC(C)(C)C)CC2)C13C(=O)O (stereo not given in full) | > 128 | 8 (≈ 14.3 µM) | – | –
CC(C)C1=CC2CC3(C=O)C4CC[C@@H](C)C4CC2(CCOC(=O)Cc2csc4ccccc24)C13C(=O)O (stereo not given in full) | > 128 | 8 (≈ 15.4 µM) | – | –
CC(C)C1=CC2CC3(C=O)C4CC[C@@H](C)C4CC2(CCOC(=O)c2cc[n+]([O-])cc2)C13C(=O)O (stereo not given in full) | > 128 | > 128 | – | –
CC(C)C1=CC2CC3(C=O)C4CC[C@@H](C)C4CC2(CCOC(=O)c2ccc(F)cc2)C13C(=O)O (stereo not given in full) | > 128 | 4 (≈ 8.54 µM) | – | –
CC(C)C1=CC2CC3(C=O)C4CC[C@@H](C)C4CC2(CCOC(=O)[C@H](C)NC(=O)OC(C)(C)C)C13C(=O)O (stereo not given in full) | > 128 | 32 (≈ 61.8 µM) | – | –
CC(C)C1=CC2CC3(C=O)C4CC[C@@H](C)C4CC2(CCOC(=O)c2ccc(Cl)nc2)C13C(=O)O (stereo not given in full) | > 128 | 4 (≈ 8.23 µM) | – | –
CC(C)C1=CC2CC3(C=O)C4CC[C@@H](C)C4CC2(CCOC(=O)c2cncc(Br)c2)C13C(=O)O (stereo not given in full) | > 128 | 4 (≈ 7.54 µM) | – | –
CC(C)C1=CC2CC3(C=O)C4CC[C@@H](C)C4CC2(CCOC(=O)c2cc(C(=O)O)[nH]n2)C13C(=O)O (stereo not given in full) | > 128 | > 128 | – | –
CC(C)C1=CC2CC3(C=O)[C@@H]4CC[C@@H](C)[C@H]4CC2(C(=O)CCc2ccccc2)[C@]13C(=O)O | 8 (≈ 18.4 µM) | 16 (≈ 36.8 µM) | – | –
CC(C)C1=CC2CC3(C=O)[C@@H]4CC[C@@H](C)[C@H]4CC2(C(=O)CC2CCCCC2)[C@]13C(=O)O | 1 (≈ 2.34 µM) | 0.5 (≈ 1.17 µM) | 3.6 | 1.8 (≈ 4.22 µM)
CC(C)C1=CC2CC3(C=O)C4CC[C@@H](C)C4CC2(CCOC(=O)c2nccc4ccccc24)C13C(=O)O (stereo not given in full) | > 128 | > 128 | – | –
CC(C)C1=CC2CC3(C=O)C4CC[C@@H](C)C4CC2(CCOC(=O)[C@@H]2CCC(=O)N2)C13C(=O)O (stereo not given in full) | > 128 | > 128 | – | –
CC(C)C1=CC2CC3(C=O)[C@@H]4CC[C@@H](C)[C@H]4CC2(C(O)C#CCC2CCCC2)[C@]13C(=O)O (stereo not given in full) | 16 (≈ 36.5 µM) | 1 (≈ 2.28 µM) | 14.2 | 14.2 (≈ 32.4 µM)
CC(C)C1=CC2CC3(C=O)C4CC[C@@H](C)C4CC2(CCOC(=O)CCC(=O)O)C13C(=O)O (stereo not given in full) | > 128 | < 128 | – | –

Structure (SMILES) | MIC (Nakaseomyces glabratus) [µg/mL] | MIC (Candida albicans) [µg/mL] | Therapeutic index [1] | CC50 (HEp-2) [µg/mL]
CC(C)C1=CC2CC3(C=O)C4CC[C@@H](C)C4CC2(CCOC(=O)c2cccnc2)C13C(=O)O (stereo not given in full) | > 128 | 16 (≈ 35.4 µM) | – | –
CC(C)C1=CC2CC3(C=O)C4CC[C@@H](C)C4CC2(CCOC(=O)Cc2ccco2)C13C(=O)O (stereo not given in full) | 64 (≈ 141 µM) | 2 (≈ 4.4 µM) | – | –
CC(C)C1=CC2CC3(C=O)C4CC[C@@H](C)C4CC2(CCOC(=O)[C@H](NC(=O)OC(C)(C)C)c2ccccc2)C13C(=O)O (stereo not given in full) | > 128 | 4 (≈ 6.9 µM) | – | –
CC(=O)OCC(=O)OCCC12CC3C(CC[C@H]3C)C3(C=O)CC1C=C(C(C)C)C32C(=O)O (stereo not given in full) | > 128 | > 128 | – | –
CC(=O)CCC(=O)OCCC12CC3C(CC[C@H]3C)C3(C=O)CC1C=C(C(C)C)C32C(=O)O (stereo not given in full) | > 128 | 8 (≈ 18 µM) | – | –
CCCCCCC(=O)C12C[C@@H]3[C@H](C)CC[C@H]3C3(C=O)CC1C=C(C(C)C)[C@@]23C(=O)O | 4 (≈ 9.65 µM) | 0.25 (≈ 0.603 µM) | 6 | 1.5 (≈ 3.62 µM)
CC(C)C1=CC2CC3(C=O)C4CC[C@@H](C)C4CC2(CCOC(=O)CCc2c[nH]c4ccccc24)C13C(=O)O (stereo not given in full) | > 128 | > 128 | – | –
CC(C)C1=CC2CC3(C=O)C4CC[C@@H](C)C4CC2(CCOC(=O)c2ccc(S(N)(=O)=O)cc2)C13C(=O)O (stereo not given in full) | > 128 | > 128 | – | –
CC(C)C1=CC2CC3(C=O)C4CC[C@@H](C)C4CC2(CCOC(=O)c2ccccc2)C13C(=O)O (stereo not given in full) | > 128 | 32 (≈ 71 µM) | – | –
CC(C)=CC(=O)OCCC12CC3C(CC[C@H]3C)C3(C=O)CC1C=C(C(C)C)C32C(=O)O (stereo not given in full) | 16 (≈ 37.3 µM) | 0.5 (≈ 1.17 µM) | – | –
CC(C)C1=CC2CC3(C=O)C4CC[C@@H](C)C4CC2(CCOC(=O)Cc2ccc(Br)o2)C13C(=O)O (stereo not given in full) | 64 (≈ 120 µM) | 2 (≈ 3.75 µM) | – | –
CC(C)C1=CC2CC3(C=O)C4CC[C@@H](C)C4CC2(CCOC(=O)C2CCCCC2)C13C(=O)O (stereo not given in full) | 8 (≈ 17.5 µM) | < 0.06 | – | –
CC(C)C1=CC2CC3(C=O)C4CC[C@@H](C)C4CC2(CCOC(=O)c2ccc(I)cc2)C13C(=O)O (stereo not given in full) | > 128 | 2 (≈ 3.47 µM) | – | –
CC(C)C1=CC2CC3(C=O)C4CC[C@@H](C)C4CC2(CCOC(=O)C2CCCC2)C13C(=O)O (stereo not given in full) | 4 (≈ 9.04 µM) | 0.125 (≈ 0.282 µM) | – | –
CC(C)C1=CC2CC3(C=O)C4CC[C@@H](C)C4CC2(CCOC(=O)CSc2ccccc2)C13C(=O)O (stereo not given in full) | 32 (≈ 64.4 µM) | 0.5 (≈ 1.01 µM) | – | –
CC(C)C1=CC2CC3(C=O)C4CC[C@@H](C)C4CC2(CCOC(=O)Cc2ccc(N(C)C)cc2)C13C(=O)O (stereo not given in full) | > 128 | 1 (≈ 1.97 µM) | – | –
